Measured values from the supplement of paper PMC10627819.

Assays:
Experiment in all cases: fitness (endpoint OD595 vs no drug) (fraction); higher = more growth
S. aureus Newman = test system: S. aureus Newman
Method in brief: (§1)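 Bacterial fitness was scored as optical density at the stationary-phase transition relative to the robust mean of no-drug control wells. Scores are capped at 1. The growth data were OD595 readings every 30 min for 14 h at 37 °C, background-subtracted against the first reading, from 384-well plates inoculated at OD595 0.01 in TSB, LB Lennox or CY.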

S. pneumoniae D39V = test system: S. pneumoniae D39V
Method in brief: as §1

S. aureus DSM 20231 = test system: S. aureus DSM 20231
Method in brief: as §1
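Also: OD595 on entry to stationary phase over no-drug wells; at most 1.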

O=C(O[C@@H]1Cc2c(O)cc(O)cc2O[C@@H]1c1cc(O)c(O)c(O)c1)c1cc(O)c(O)c(O)c1 [EGCG] + CO/N=C(\C(=O)N[C@@H]1C(=O)N2C(C(=O)[O-])=C(C[N+]3(C)CCCC3)CS[C@H]12)c1csc(N)n1 [Cefepime]
fitness
Conditions | first compound 12.5 µg/mL | first compound 25 µg/mL | first compound 50 µg/mL
S. aureus DSM 20231, partner 0.125 µg/mL | 0.736 | 0.725 | –
S. aureus DSM 20231, partner 0.25 µg/mL | 0.634 | 0.563 | 0.583
S. aureus DSM 20231, partner 0.5 µg/mL | 0.616 | 0.576 | 0.587
S. aureus Newman, partner 0.125 µg/mL | 0.789 | 0.722 | 0.72
S. aureus Newman, partner 0.25 µg/mL | 0.736 | 0.685 | 0.678
S. aureus Newman, partner 0.5 µg/mL | 0.656 | 0.724 | 0.657
S. pneumoniae D39V, partner 0.007 µg/mL | 0.958 | 0.951 | 0.985
S. pneumoniae D39V, partner 0.0078 µg/mL | ≥ 1 | 0.874 | 0.939
S. pneumoniae D39V, partner 0.014 µg/mL | 0.998 | 0.987 | 0.998
S. pneumoniae D39V, partner 0.0155 µg/mL | 0.96 | ≥ 1 | 0.931
S. pneumoniae D39V, partner 0.028 µg/mL | 0.928 | 0.979 | 0.973
S. pneumoniae D39V, partner 0.031 µg/mL | 0.733 | 0.716 | 0.853

O=C(O[C@@H]1Cc2c(O)cc(O)cc2O[C@@H]1c1cc(O)c(O)c(O)c1)c1cc(O)c(O)c(O)c1 [EGCG] + CO[C@@]12[C@H](COC(N)=O)C3=C(C(=O)C(C)=C(N)C3=O)N1C[C@@H]1N[C@@H]12 [Mitomycin C]
fitness
Conditions | first compound 12.5 µg/mL | first compound 25 µg/mL | first compound 50 µg/mL
S. aureus DSM 20231, partner 0.0156 µg/mL | 0.587 | 0.553 | –
S. aureus DSM 20231, partner 0.0312 µg/mL | 0.595 | 0.574 | –
S. aureus DSM 20231, partner 0.0625 µg/mL | 0.507 | 0.483 | –
S. aureus Newman, partner 0.0156 µg/mL | 0.541 | 0.611 | 0.628
S. aureus Newman, partner 0.0312 µg/mL | 0.547 | 0.528 | 0.488
S. aureus Newman, partner 0.0625 µg/mL | 0.457 | 0.397 | 0.459
S. pneumoniae D39V, partner 0.001075 µg/mL | 0.877 | 0.9 | 0.926
S. pneumoniae D39V, partner 0.002 µg/mL | 0.77 | – | 0.777
S. pneumoniae D39V, partner 0.00215 µg/mL | 0.783 | 0.902 | –
S. pneumoniae D39V, partner 0.004 µg/mL | 0.793 | 0.685 | 0.646
S. pneumoniae D39V, partner 0.0043 µg/mL | – | 0.747 | 0.881
S. pneumoniae D39V, partner 0.008 µg/mL | 0.422 | 0.379 | 0.285

CCCCCCCCCC(=O)N[C@H]1[C@H](Oc2c3cc4cc2Oc2ccc(cc2Cl)[C@@H](O[C@@H]2O[C@H](CO)[C@@H](O)[C@H](O)[C@H]2NC(C)=O)[C@@H]2NC(=O)[C@H](NC(=O)[C@@H]4NC(=O)[C@H]4NC(=O)[C@@H](Cc5ccc(c(Cl)c5)O3)NC(=O)[C@H](N)c3ccc(O)c(c3)Oc3cc(O)cc4c3)c3ccc(O)c(c3)-c3c(O[C@H]4O[C@H](CO)[C@@H](O)[C@H](O)[C@@H]4O)cc(O)cc3[C@@H](C(=O)O)NC2=O)O[C@H](CO)[C@@H](O)[C@@H]1O [Teicoplanin] + Cn1nnc(-c2ccc(-c3ccc(N4C[C@H](CO)OC4=O)cc3F)cn2)n1 [Tedizolid]
fitness, main component drawn
Conditions | first compound 0.1562 µg/mL | first compound 0.3125 µg/mL | first compound 0.625 µg/mL
S. aureus DSM 20231, partner 0.0625 µg/mL | 0.808 | 0.89 | 0.949
S. aureus DSM 20231, partner 0.25 µg/mL | 0.066 | 0.0756 | 0.1
S. aureus Newman, partner 0.0625 µg/mL | ≥ 1 | 0.969 | 0.811
S. aureus Newman, partner 0.125 µg/mL | ≥ 1 | 0.97 | 0.779
S. aureus Newman, partner 0.25 µg/mL | – | 0.391 | 0.163

fitness, S. aureus Newman, one replicate, main component drawn
Conditions | first compound 0.62 µg/mL | first compound 1.24 µg/mL | first compound 2.48 µg/mL
partner 0.0625 µg/mL | 0.883 | 0.789 | 0.474
partner 0.125 µg/mL | 0.853 | 0.812 | 0.627
partner 0.25 µg/mL | 0.447 | 0.402 | 0.361
